Laboratory results as given in patent publication US10934263B2, “Charged ion channel blockers and methods for use” (Nocion Therapeutics, Inc., priority 2019, dated 2021).

These compounds were tested against T1, NaV1.7 (Homo sapiens, UniProt Q15858) (assay: Whole cell patch clamp, internal block of NaV1.7 current (compound in internal solution)). Conditions: % inhibition at 10 μM, compound applied internally, manual patch clamp; read-out: Nav1.7 Intracellular Inhibition.
T1 construct: expressed in transfected cells; tetracycline-inducible, kept under hygromycin and blasticidin
T1 sequence (Q15858 whole entry): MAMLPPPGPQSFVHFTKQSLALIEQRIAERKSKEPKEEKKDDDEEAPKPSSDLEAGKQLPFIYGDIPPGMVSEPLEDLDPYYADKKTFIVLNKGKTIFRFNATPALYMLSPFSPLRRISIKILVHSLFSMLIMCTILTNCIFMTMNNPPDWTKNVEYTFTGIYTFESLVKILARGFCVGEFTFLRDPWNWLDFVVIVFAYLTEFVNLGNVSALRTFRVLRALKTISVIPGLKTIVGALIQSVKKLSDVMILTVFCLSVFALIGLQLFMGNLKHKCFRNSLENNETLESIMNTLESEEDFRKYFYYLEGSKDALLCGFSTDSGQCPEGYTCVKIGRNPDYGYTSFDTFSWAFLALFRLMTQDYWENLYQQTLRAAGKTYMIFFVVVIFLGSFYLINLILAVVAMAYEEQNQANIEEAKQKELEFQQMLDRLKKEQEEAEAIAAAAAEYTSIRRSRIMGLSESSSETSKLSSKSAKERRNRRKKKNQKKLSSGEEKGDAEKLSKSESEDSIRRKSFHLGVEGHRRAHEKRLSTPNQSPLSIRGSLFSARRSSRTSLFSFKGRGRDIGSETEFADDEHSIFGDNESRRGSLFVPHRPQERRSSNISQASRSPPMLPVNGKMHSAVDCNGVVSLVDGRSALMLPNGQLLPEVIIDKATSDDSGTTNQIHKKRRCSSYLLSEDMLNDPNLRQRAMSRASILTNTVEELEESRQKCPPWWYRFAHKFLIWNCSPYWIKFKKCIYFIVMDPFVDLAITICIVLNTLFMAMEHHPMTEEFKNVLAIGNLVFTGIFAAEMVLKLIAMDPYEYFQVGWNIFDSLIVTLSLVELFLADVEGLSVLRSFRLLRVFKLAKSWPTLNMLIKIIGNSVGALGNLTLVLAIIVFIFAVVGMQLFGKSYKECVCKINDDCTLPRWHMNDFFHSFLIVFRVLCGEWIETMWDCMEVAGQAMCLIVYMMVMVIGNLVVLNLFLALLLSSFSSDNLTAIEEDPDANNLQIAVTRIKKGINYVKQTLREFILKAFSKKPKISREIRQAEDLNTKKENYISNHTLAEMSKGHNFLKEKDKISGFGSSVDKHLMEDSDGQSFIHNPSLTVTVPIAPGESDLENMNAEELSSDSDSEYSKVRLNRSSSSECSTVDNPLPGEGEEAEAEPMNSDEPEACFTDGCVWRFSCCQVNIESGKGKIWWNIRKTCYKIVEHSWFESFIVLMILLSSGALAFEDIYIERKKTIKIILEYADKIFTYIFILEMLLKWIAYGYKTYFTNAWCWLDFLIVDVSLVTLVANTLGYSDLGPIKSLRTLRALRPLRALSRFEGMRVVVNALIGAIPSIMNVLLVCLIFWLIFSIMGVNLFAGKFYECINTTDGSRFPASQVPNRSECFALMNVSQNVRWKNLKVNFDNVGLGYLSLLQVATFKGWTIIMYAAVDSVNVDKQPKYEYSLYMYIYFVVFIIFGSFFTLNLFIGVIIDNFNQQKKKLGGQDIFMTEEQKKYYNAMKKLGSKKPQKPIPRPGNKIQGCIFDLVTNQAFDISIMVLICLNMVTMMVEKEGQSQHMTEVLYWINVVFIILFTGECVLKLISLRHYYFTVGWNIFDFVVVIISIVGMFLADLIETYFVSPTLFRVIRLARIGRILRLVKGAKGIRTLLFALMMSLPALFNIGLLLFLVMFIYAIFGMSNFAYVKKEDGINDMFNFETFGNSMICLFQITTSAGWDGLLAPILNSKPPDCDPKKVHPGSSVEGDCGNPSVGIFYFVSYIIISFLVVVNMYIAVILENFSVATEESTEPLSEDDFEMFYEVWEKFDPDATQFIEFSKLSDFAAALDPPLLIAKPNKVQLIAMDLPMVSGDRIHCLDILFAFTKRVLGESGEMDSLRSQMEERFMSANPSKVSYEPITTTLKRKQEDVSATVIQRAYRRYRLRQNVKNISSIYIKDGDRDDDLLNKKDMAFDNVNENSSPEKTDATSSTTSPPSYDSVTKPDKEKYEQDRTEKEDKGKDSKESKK
Assay type: cell-based
Method in brief: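 Tetracycline-induced NaV1.7 cells, whole-cell patch clamp at room temperature with compound in CsCl internal solution (pH 7.2), Ringer bath (pH 7.4). Held at −100 mV, steps to −20 mV; after baseline, four 30-s 5 Hz trains. Peak inward current at end of last train divided by baseline gives fraction remaining.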

Q: With `CCOC(=O)Cn1cc(C)c[n+]1CC(=O)Nc1c(C)cccc1C` [Compound 76] as the compound, how does the inhibition at 10 µM read?
A: 70 to 95%

Q: Which inhibition at 10 µM does the source give for `Cc1cccc(C)c1NC(=O)C[n+]1cccc(Cc2ccccc2)c1` [Compound 34] here?
A: 70 to 95%

Q: `Cc1cccc(C)c1NC(=O)C[n+]1cccc(S(C)(=O)=O)c1` [Compound 46] was tested. Which inhibition at 10 µM did it give?
A: 70 to 95%

Q: Which inhibition at 10 µM does the source give for `CCn1c(C)cc[n+]1CC(=O)Nc1c(C)cccc1C` [Compound 104] here?
A: 70 to 95%

Q: Which inhibition at 10 µM does the source give for `Cc1cccc(C)c1NC(=O)C[n+]1cccn1C1CCCC1` [Compound 71] here?
A: > 95%

Q: `Cc1cccc(C)c1NC(=O)C[n+]1cc2ccccc2n1C` [Compound 54] was tested. Which inhibition at 10 µM did it give?
A: 70 to 95%

Q: With `COc1cc(OC)c[n+](CC(=O)Nc2c(C)cccc2C)c1` [Compound 98] as the compound, how does the inhibition at 10 µM read?
A: 70 to 95%

Q: With `CCOC(=O)CCCn1ccc[n+]1CC(=O)Nc1c(C)cccc1C` [Compound 75] as the compound, how does the inhibition at 10 µM read?
A: > 95%

Q: `Cc1cccc(C)c1NC(=O)C[n+]1c(C)cc(C)n1C` [Compound 94] was tested. Which inhibition at 10 µM did it give?
A: 70 to 95%

Q: For `Cc1cccc(C)c1NC(=O)C[n+]1cccn1CC#N` [Compound 69], which inhibition at 10 µM is on record?
A: 40 to 70%

Q: With `Cc1cccc(C)c1NC(=O)C[n+]1cccc(C(F)(F)F)c1` [Compound 66] as the compound, how does the inhibition at 10 µM read?
A: 70 to 95%

Q: How did the inhibition at 10 µM turn out when `CCNc1ccc[n+](CC(=O)Nc2c(C)cccc2C)c1` [Compound 50] was run?
A: > 95%

Q: `Cc1cccc(C)c1NC(=O)C[n+]1cccc(N2CCCC2)c1` [Compound 51] was tested. Which inhibition at 10 µM did it give?
A: > 95%

Q: For `CCCn1ccc(C)[n+]1CC(=O)Nc1c(C)cccc1C` [Compound 101], which inhibition at 10 µM is on record?
A: 70 to 95%

Q: For `Cc1cccc(C)c1NC(=O)C[n+]1cc(OCc2ccccc2)ccc1Cl` [Compound 103], which inhibition at 10 µM is on record?
A: > 95%

Q: Which inhibition at 10 µM does the source give for `Cc1cccc(C)c1NC(=O)C(Cc1ccccc1)[n+]1ccccc1` (stereo not drawn) [Compound 106] here?
A: > 95%

Q: `Cc1cccc(C)c1NC(=O)C[n+]1cccc(S(=O)(=O)N(C)C)c1` [Compound 47] was tested. Which inhibition at 10 µM did it give?
A: 70 to 95%

Q: Which inhibition at 10 µM does the source give for `Cc1cccc(C)c1NC(=O)C[n+]1cc(F)cc(-c2ccccc2)c1` [Compound 77] here?
A: > 95%

Q: For `Cc1cccc(C)c1NC(=O)C(CC(C)C)[n+]1ccccc1` (stereo not drawn) [Compound 108], which inhibition at 10 µM is on record?
A: 70 to 95%

Q: Which inhibition at 10 µM does the source give for `CCn1ccc(C)[n+]1CC(=O)Nc1c(C)cccc1C` [Compound 95] here?
A: < 40%

Q: How did the inhibition at 10 µM turn out when `Cc1cccc(C)c1NC(=O)C[n+]1cccn1CC1CC1` [Compound 73] was run?
A: > 95%

Q: `COC(=O)c1c(F)c[n+](CC(=O)Nc2c(C)cccc2C)cc1F` [Compound 89] was tested. Which inhibition at 10 µM did it give?
A: 40 to 70%

Q: With `CCOC(=O)c1cc(C)[n+](CC(=O)Nc2c(C)cccc2C)n1C` [Compound 84] as the compound, how does the inhibition at 10 µM read?
A: 70 to 95%

Q: For `Cc1cccc(C)c1NC(=O)Cn1ccc[n+]1CC(=O)Nc1c(C)cccc1C` [Compound 109], which inhibition at 10 µM is on record?
A: > 95%

Q: With `CCCCn1ccc[n+]1CC(=O)Nc1c(C)cccc1C` [Compound 83] as the compound, how does the inhibition at 10 µM read?
A: 70 to 95%

Q: How did the inhibition at 10 µM turn out when `CNC(=O)Cc1ccc[n+](CC(=O)Nc2c(C)cccc2C)c1` [Compound 33] was run?
A: 70 to 95%

Q: How did the inhibition at 10 µM turn out when `CCCn1c(C)cc[n+]1CC(=O)Nc1c(C)cccc1C` [Compound 81] was run?
A: 70 to 95%
